# Reference: publication PMC5540490, “Plasma concentrations of caspofungin in a critically ill patient with morbid obesity” (Critical Care, 2017)
# Read-outs that look alike come from different tables or passages of the source.
# Assays:
# [1] = Plasma/serum concentrations of caspofungin in a critically ill patient with morbid obesity; format: in vivo; conditions: male, human, plasma, 100 mg/day; for Cmax: read-out: Cpeak
# Source text: The aim of the study was to describe the pharmacokinetic behaviour of caspofungin in a critically ill patient with morbid obesity who received doses of caspofungin higher than labelled doses.
# (§1) A morbidly obese person (BMI = 50 kg/m^2) was admitted to our ICU after surgical treatment of anastomotic leak in the postoperative period of elective laparoscopic bariatric surgery. The patient was in septic shock, with Candida multicolonization and other risk factors of invasive candidiasis. We decided to start antimicrobial treatment, including meropenem, linezolid and caspofungin. With the intention of maximizing the potential effectiveness of antifungal treatment, caspofungin at a dose of 100 mg/day was chosen. The caspofungin dose was calculated using a population pharmacokinetic model. Target AUC/MIC was set at 860 and therefore AUC values above 107 mg*h/L were necessary assuming MIC = 0.125 mg/L [2]. […] The manufacturer recommends caspofungin dose reduction when AUC values are above 210 mg*h/L and, accordingly, drug exposure was considered safe.
# [2] = Clinical course and tolerability of caspofungin treatment in the patient; format: in vivo, human; conditions: 100 mg/day for 14 days; one patient
# Source text: as §1
# [3] = three days later, one morbidly obese ICU patient
compound,measurement,setting,value
CC[C@H](C)C[C@H](C)CCCCCCCCC(=O)N[C@H]1C[C@@H](O)[C@@H](NCCN)NC(=O)[C@@H]2[C@@H](O)CCN2C(=O)[C@H]([C@H](O)CCN)NC(=O)[C@H]([C@H](O)[C@@H](O)c2ccc(O)cc2)NC(=O)[C@@H]2C[C@@H](O)CN2C(=O)[C@H]([C@@H](C)O)NC1=O [caspofungin],AUC,"[1]; after the first dose, one morbidly obese ICU patient",116 µg·h/mL
same,Cmax,"[1]; after the first dose, one morbidly obese ICU patient (BMI 50 kg/m^2) in septic shock",4510 ng/mL
same,AUC,[1]; [3],140 µg·h/mL
same,Cmax,[1]; [3],5970 ng/mL
same,level at 72 h,"[1]; three days later, one morbidly obese ICU patient, read-out: Ctrough",1760 ng/mL
same,Adverse effects related to the drug,[2],without any adverse effects
